Read-outs that look alike come from different tables or passages of the source.
Assays:
[1] = cited from earlier work
[2] = Inhibition of arthritis in the passive transfer model; type: in vivo, Lewis rat
Protocol: Another arthritis model often used is the passive transfer model. In the passive transfer model of adjuvant arthritis, spleen cells are harvested from animals 12-14 days after the animals have been injected with adjuvant, cultured 24 hours in vitro with the T-cell mitogen, concanavaLin A, and injected into naive rats. Within 14-20 days, arthritis develops in the paws. […] Otterness and Bliven, supra.
Nimodipine was also tested for its ability to inhibit arthritis in the passive-transfer model. Otterness and Bliven, supra.
Spleens were harvested from naive rats or from rats 9-12 days after sensitization with complete Freund's adjuvant. Single cell suspensions from spleen were prepared and cells were cultured for 24 hours with the T cell mitogen, concanavalin A. Spleen cells were harvested and injected, i.v., into naive animals. Ankle diameters were determined 14-18 days after injection of spleen cells from naive or sensitized animals into naive animals. Animals were administered nimodipine at 10 mg/kg/day, i.p., suspended in 5% polyethylene glycol and 0.5% Tween-80 in phosphate-buffered saline.

[3] = Inhibition of arthritis in the adjuvant-induced arthritis model in the Lewis rat; type: in vivo; conditions: for ED50: Rattus norvegicus, ip, 384 h; for Potency compared with indomethacin: i.p., adjuvant arthritis model
Description: One similarity is the sensitivity to certain therapeutic treatments known to be active in humans. Also, therapeutic doses in humans are similar to therapeutic doses in the adjuvant arthritis model. Examples include NSAIDs, steroids, methotrexate, immunosuppressive drugs, such as cyclosporin, and cytotoxic drugs, such as cyclophosphamide and allopurinol. Jeurissen et. al., Arthritis and Rheumatism 34, 961-972 (1991); Yocum et. al., Annals of Internal Medicine 109, 863-869 (1988); Rau, et. al., Arthritis and Rheumatism 34, 1236-1244 (1991); Otterness and Bliven, supra; Ward, Am. J. Med. Medicine. pp. 3-9 (Jul. 13, 1984).
Lewis rats were given a 0.1 ml injection of adjuvant (1 mg/animal) into the base of the tail on day 0. Swelling of the feet and ankles was first noted on days 10-12. Maximal swelling was observed on days 16-20. The cell infiltrate of the chronic inflammatory responses is predominantly mononuclear (indicating the presence of cell-mediated immunity). Animals were observed daily, and ankle diameter was measured in millimeters on days 12 and 16 using a hand-held dial micrometer. The degree of swelling was assessed by calculating the mean difference between day 16 and day 0 ankle diameter. The results are expressed as the percent inhibition of the increase in ankle diameter on day 16. At this point the animals were sacrificed and tissues were taken for histologic evaluation.
Animals were administered test drugs, suspended in 5% polyethylene glycol and 0.5% Tween-80 in phosphate buffered saline (p.o. or i.p.) once each day from day 1 to day 16.

[4] = cited from earlier work; remark: listed apart in the source
L-type Ca2+ channels = conditions: fibroblasts, macrophage/monocyte-like cells, Kuppfer cells; cited from earlier work

In the case of `COCCOC(=O)C1=C(C)NC(C)=C(C(=O)OC(C)C)C1c1cccc([N+](=O)[O-])c1` (stereo not shown) [nimodipine], the Gastrointestinal irritation ([1]; acute, sub-acute and chronic exposure, even at supra-therapeutic concentrations, NDA applications) is listed as “have not revealed any gastrointestinal irritation”, the Gastrointestinal toxicity ([1]; expected therapeutic dose in rheumatoid arthritis, prolonged periods of treatment) is listed as “no gastrointestinal toxicity has been observed” and the “Inhibition of arthritis in the passive transfer model” value ([2]; 10 mg antagonist/kg body weight/day) is listed as “completely inhibited arthritis”. The “Increase in paw diameter” value ([2]; sensitized T cells, 10 mg/kg/day, i.p., 14-18 days after injection of spleen cells) was 0.2 ± 0.05 mm, the ED50 [3] was 4 mg/kg and the “Potency compared with indomethacin” value [3] was “comparable in potency to indomethacin”.
For `CC1=C(CC(=O)O)c2cc(F)ccc2/C1=C\c1ccc([S+](C)[O-])cc1` (stereo not shown) [sulindac], the “Potency relative to indomethacin” value ([4]; human, in vivo) is listed as “only half as potent as indomethacin” and the Toxic side effects ([4]; human, in vivo) is listed as “has toxic side effects of its own”.
With `COC(=O)C1=C(C)NC(C)=C(C(=O)OCC(C)C)C1c1ccccc1[N+](=O)[O-]` (stereo not shown) [nisoldipine] the ED50 ([3]; i.p. dosage, once each day from day 1 to day 16, increase in ankle diameter on day 16, read-out: ED50) was under 1 mg/kg and the “Potency compared with indomethacin” value [3] was “comparable in potency to indomethacin”.
For `COC(=O)C1=C(C)NC(C)=C(C(=O)OC)C1c1ccccc1[N+](=O)[O-]` [nifedipine], the ED50 [3] was 11 mg/kg.
In the case of `COc1ccc2c(c1)c(CC(=O)O)c(C)n2C(=O)c1ccc(Cl)cc1` [indomethacin], the “Patients experiencing untoward side effects” value ([4]; human, in vivo) is given as 35-50%, the “Patients forced to discontinue use” value ([4]; human, in vivo) is given as “about 20%” and the “Ulceration of the upper gastrointestinal tract / gastrointestinal bleeding” value ([4]; therapeutic doses used in rheumatoid arthritis) is given as “ulceration of the upper gastrointestinal tract leading to gastrointestinal bleeding is common”. It also gave an ED50 [3] of 3 ± 1 mg/kg.
For `CN(Cc1cnc2nc(N)nc(N)c2n1)c1ccc(C(=O)N[C@@H](CCC(=O)O)C(=O)O)cc1` [methotrexate], the “Progressive dose-related hepatic changes” value ([4]; extended periods of treatment, correlates with ethanol ingestion) is listed as “progressive dose-related hepatic changes” and the “Hepatic effects in patients treated for rheumatoid arthritis” value ([4]; human, in vivo) is listed as “Hepatic fibrosis and cirrhosis have been reported”.
In the case of `COC(=O)C1=C(C)NC(C)=C([N+](=O)[O-])C1c1ccccc1C(F)(F)F` (stereo not shown) [Bay K 8644], the “Entry of Ca2+ into non-excitable cells” value (L-type Ca2+ channels) is given as “stimulated”.
Work on `COc1ccc(CCN(C)CCCC(C#N)(c2ccc(OC)c(OC)c2)C(C)C)cc1OC` (stereo not shown) [verapamil] yielded an ED50 [3] of 10 mg/kg.
